This is an account of results in the supplement of paper PMC10702517.

± gives the standard deviation.

Data set [1] is described as follows: chemical recovery by SPE of plasma after PDMS sampling; higher = better extraction. The following applies: pooled human plasma, extraction method: HLB SPE of plasma after PES.
Data set [2] can be described thus: chemical recovery from spiked human plasma; higher = better extraction. The following applies: pooled human plasma.
Setting [3] is: extraction method: PES+SPE (3 d PDMS equilibration then HLB SPE).
Where [4] appears, read: extraction method: SPE only (HLB 96-well).
Where [5] appears, read: extraction method: SPE only (HLB 96-well), PES comparison experiment.
Where [6] appears, read: extraction method: solvent precipitation (ACN + hexane).
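Wherever chemical recovery by SPE of plasma after PDMS sampling is given: over 400 spiked chemicals quantified by LC-HRMS or GC-HRMS via internal standard calibration, recovery relative to spike mix added to unspiked plasma extract to correct matrix effects.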

As for `Brc1ccc(Oc2ccc(Br)cc2Br)c(Br)c1` [BDE47], the “chemical recovery by SPE of plasma” value turned out to be 1.38 ± 1% in data set [1] (equilibration time (d): 1), 1.56 ± 0.066% in data set [1] (equilibration time (d): 3) and 1.34 ± 0.21% in data set [1] (equilibration time (d): 6).
For `CC(C)N1C(=O)c2ccccc2NS1(=O)=O` [Bentazone], the chemical recovery in data set [2] (setting [3]) was 44.5 ± 3.6%; in data set [2] (setting [4]), 41.7 ± 3.2%; in data set [2] (setting [5]), 63.8 ± 5.6%; in data set [2] (setting [6]), 75.2 ± 2.8%. Also, the results for the “chemical recovery by SPE of plasma” value in data set [1] (equilibration time (d): 1), in data set [1] (equilibration time (d): 3) and in data set [1] (equilibration time (d): 6) were 54.8 ± 8.1%, 58 ± 4.1% and 54.7 ± 3.1%, respectively.
`c1ccc2cc3c(ccc4ccccc43)cc2c1` [Benz(a)anthracene]: the chemical recovery in data set [2] (setting [4]) turned out to be 1.06 ± 0.29%; in data set [2] (setting [6]) it was 20.2 ± 2.8%. For the same molecule, the “chemical recovery by SPE of plasma” value in data set [1] (equilibration time (d): 3) turned out to be 8.41 ± 7.3%; in data set [1] (equilibration time (d): 6) it was 4.31 ± 7.5%.
As for `Nc1ccc(-c2ccc(N)cc2)cc1` [Benzidine], the chemical recovery in data set [2] (setting [3]) was found to be 0.64 ± 0.073%; in data set [2] (setting [4]) it was 13.2 ± 2%; in data set [2] (setting [5]), 5.89 ± 3%; in data set [2] (setting [6]), 38.3 ± 7.4%. For the same molecule, the figures for the “chemical recovery by SPE of plasma” value in data set [1] (equilibration time (d): 1), in data set [1] (equilibration time (d): 3) and in data set [1] (equilibration time (d): 6) were 6.25 ± 0.9%, 6.11 ± 1.1% and 3.81 ± 0.98%, respectively.
With `c1ccc2c(c1)cc1ccc3cccc4ccc2c1c34` [Benzo(a)pyrene], the chemical recovery in data set [2] (setting [4]) is 4.36 ± 4%; in data set [2] (setting [6]) it was 99.1 ± 12%. In addition, the “chemical recovery by SPE of plasma” value in data set [1] (equilibration time (d): 1) stood at 1.26 ± 1.1%.
For the molecule `c1ccc2c(c1)c1cccc3ccc4cccc2c4c31` [Benzo(e)pyrene], the figures for the chemical recovery in data set [2] (setting [4]) and in data set [2] (setting [6]) were 2.35 ± 0.68% and 57.7 ± 6.1%, respectively. The “chemical recovery by SPE of plasma” value stood at 1.45 ± 1.3% in data set [1] (equilibration time (d): 1), 1.37 ± 1.2% in data set [1] (equilibration time (d): 3) and 1.06 ± 1.8% in data set [1] (equilibration time (d): 6).
In the case of `c1cc2ccc3ccc4ccc5cccc6c(c1)c2c3c4c56` [Benzo(ghi)perylene], the “chemical recovery by SPE of plasma” value came out at 2.59 ± 4.5% in data set [1] (equilibration time (d): 1), 1.28 ± 1.1% in data set [1] (equilibration time (d): 3) and 1.37 ± 0.46% in data set [1] (equilibration time (d): 6).
`COc1cc(O)c(C(=O)c2ccccc2)cc1S(=O)(=O)O` [Benzophenone-4]: the chemical recovery stood at 45.5 ± 3.2% in data set [2] (setting [3]), 43.3 ± 3.8% in data set [2] (setting [4]), 44.4 ± 4.8% in data set [2] (setting [5]) and 72.2 ± 2.3% in data set [2] (setting [6]). Besides, the “chemical recovery by SPE of plasma” value in data set [1] (equilibration time (d): 1) worked out at 41 ± 11%; in data set [1] (equilibration time (d): 3) it was 48.7 ± 3.4%; in data set [1] (equilibration time (d): 6), 43.3 ± 4.4%.
In data set [2] (setting [5]), `CCCCCCCCCCCC[N+](C)(C)Cc1ccccc1` [Benzyldimethyldodecylammonium] gave a chemical recovery of 46.5 ± 13%. Also, the “chemical recovery by SPE of plasma” value in data set [1] (equilibration time (d): 1) was 39.1 ± 6.7%; in data set [1] (equilibration time (d): 3), 43.2 ± 10%.
`O=C(O)c1cc(Oc2ccc(Cl)cc2Cl)ccc1[N+](=O)[O-]` [Bifenox free acid]: the chemical recovery in data set [2] (setting [3]) worked out at 38.2 ± 3.9%; in data set [2] (setting [4]), 30.6 ± 3.6%; in data set [2] (setting [5]), 36.6 ± 6.7%; in data set [2] (setting [6]) it was 65.8 ± 3.1%. In data set [1] (equilibration time (d): 3), the “chemical recovery by SPE of plasma” value came out at 40.7 ± 16%.
Take `Oc1c(Br)cc(Cl)cc1Cc1cc(Cl)cc(Br)c1O` [Bromochlorophen]: the chemical recovery amounted to 34.8 ± 6.3% in data set [2] (setting [3]), 28.9 ± 6% in data set [2] (setting [4]), 32.3 ± 8% in data set [2] (setting [5]) and 34.9 ± 2% in data set [2] (setting [6]). The “chemical recovery by SPE of plasma” value in data set [1] (equilibration time (d): 1) was determined as 34.8 ± 10%.
`CCCCCOC(=O)Nc1nc(=O)n([C@@H]2O[C@H](C)[C@@H](O)[C@H]2O)cc1F` [Capecitabine] showed a chemical recovery in data set [2] (setting [5]) of 47.5 ± 7.2%. Also, the “chemical recovery by SPE of plasma” value stood at 44.1 ± 5.1% in data set [1] (equilibration time (d): 1), 48.6 ± 5.5% in data set [1] (equilibration time (d): 3) and 44.2 ± 1.7% in data set [1] (equilibration time (d): 6).
As for `O=C(O)COCCN1CCN(C(c2ccccc2)c2ccc(Cl)cc2)CC1` (centres undefined) [Cetirizine], the chemical recovery was 69.9 ± 7.9% in data set [2] (setting [3]), 50.9 ± 2.3% in data set [2] (setting [4]) and 48.6 ± 6.5% in data set [2] (setting [5]). Further, the entries for the “chemical recovery by SPE of plasma” value in data set [1] (equilibration time (d): 1), in data set [1] (equilibration time (d): 3) and in data set [1] (equilibration time (d): 6) were 47.2 ± 6.6%, 52.3 ± 5.3% and 47.7 ± 2.9%, respectively.
Take `CC[C@H]1OC(=O)[C@H](C)[C@@H](O[C@H]2C[C@@](C)(OC)[C@@H](O)[C@H](C)O2)[C@H](C)[C@@H](O[C@@H]2O[C@H](C)C[C@H](N(C)C)[C@H]2O)[C@](C)(OC)C[C@@H](C)C(=O)[C@H](C)[C@@H](O)[C@]1(C)O` [Clarithromycin]: the chemical recovery came to 30.2 ± 4.1% in data set [2] (setting [3]), 45.1 ± 2.3% in data set [2] (setting [4]), 44.1 ± 6.5% in data set [2] (setting [5]) and 69.1 ± 2.1% in data set [2] (setting [6]). The “chemical recovery by SPE of plasma” value came out at 22 ± 3.3% in data set [1] (equilibration time (d): 1), 24.4 ± 2.8% in data set [1] (equilibration time (d): 3) and 22.3 ± 2.2% in data set [1] (equilibration time (d): 6).
